According to US20090062190A1, “Transcriptional Regulation of Cytokines by LITAF and STAT (6)(B)” (priority 2005, published 2009):

System: translocation of STAT6(B) and LITAF in mouse macrophages
Assay: Western blot after kinase inhibitor pretreatment plus LPS stimulation (FIG. 13)
Type: cell-based
Conditions: pretreatment before LPS stimulation
Source text: It is well known that STAT family members share two major domains, oligomerization and Src homology 2 (SH2), for phosphorylation by Janis kinases (Jaks) that facilitate dimerization of STAT proteins and subsequent translocation into the nucleus (Gallmeier, et al., J Cell Physiol, 203:209-216, 2005; Chen, et al., J Allergy Clin Immunol, 114:476-489, 2004, Tang, et al., PNAS USA, 102:5132-5137, 2005). […] In this Western blot, cells were pretreated with various kinase inhibitors (FIG. 13a) before LPS stimulation.

With `C[S+]([O-])c1ccc(-c2nc(-c3ccncc3)c(-c3ccc(F)cc3)[nH]2)cc1` (stereo not drawn) [SB203580] the “TNF-α protein levels compared to cells exposed to LPS only” value was “suppression”, the “LITAF and STAT6(B) expression in the nucleus” value (Western blot) was “substantially reduced” and the “whole cell extract LITAF and STAT6(B) expression” value (Western blot) was “unchanged”.
